Results on seven compounds are retold here after the supplement of paper PMC11061612.

Assay in all cases: combination Emax (second highest fraction inhibited in the dose matrix, 72 h); higher = more inhibition; extreme values may be limits of the assay
In one assay the test system is RH-1 (Ewing's Sarcoma). The method in brief:
(§1)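 After 24 hours at 37°C and 5% CO2 in 1536-well plates, cells in DMEM/F12 or RPMI plus 10% FBS received two-drug dose matrices for 72 hours. Viability came from CellTiter-Glo 2.0 luminescence and was scaled as inhibition, anchored at 0 by vehicle wells and at 1 by blank wells. Combination Emax is taken as the second-highest inhibition in the matrix, and Bliss excess as the observed combination effect less EA + EB − EA·EB, with EA and EB the single-agent effects.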

The subject of assay [1] is MFH-ino (Other Solid Carcinomas). The method in brief:
as §1

Assay [2] concerns NALM-6 (B-Lymphoblastic Leukemia). In outline: as §1
For assay [3], the system named is KARPAS-620 (Plasma Cell Myeloma). The method in brief: as §1
Assay [4] relates to EM-2 (Chronic Myelogenous Leukemia). In outline:
as §1

Assay [5] has as its system JiyoyeP-2003 (Burkitt's Lymphoma). In outline:
as §1

The test system of assay [6] is CFPAC-1 (Pancreatic Carcinoma). In outline:
as §1

Assay [7] relates to LU-99A (Non-Small Cell Lung Carcinoma). The method in brief:
as §1

Assay [8] relates to G-292-Clone-A141B1 (Osteosarcoma). The method in brief: as §1
Assay [9] concerns KARPAS-1106P (B-Cell Non-Hodgkin's Lymphoma). The method in brief:
as §1

For assay [10], the system named is SUIT-2 (Pancreatic Carcinoma). In outline:
as §1

Another assay deals with DSH1 (Bladder Carcinoma). In outline:
as §1

Assay [11] concerns C3A (Hepatocellular Carcinoma). The method in brief:
as §1

The subject of assay [12] is DB (B-Cell Non-Hodgkin's Lymphoma). In outline:
as §1

In assay [13] the test system is SW1783 (Low Grade Glioma). In outline: as §1
In another assay the test system is SK-N-FI (Neuroblastoma). The method in brief:
as §1

Assay [14] concerns SW756 (Cervical Carcinoma). The method in brief:
as §1

The test system of the next assay is NCI-H2369 (Mesothelioma). In outline:
as §1

Assay [15] relates to HCC2157 (Breast Carcinoma). In outline:
as §1

Assay [16] has as its system KATOIII (Gastric Carcinoma). In outline:
as §1

`COc1nnc2ccc(N3CCC(c4ccc(OCCN5CCN(C)C(=O)[C@H]5C)cc4)CC3)nn12` [AZD5153] + C[C@@H]1COCCN1C2=NC(=NC(=C2)C3(CC3)[S@](=N)(=O)C)C4=C5C=CNC5=NC=C4 [AZD6738] (first compound max 1 µM, 7x7, partner max 10 µM): the “combination Emax” value was 0.957 with RH-1 (Ewing's Sarcoma); 0.547 in assay [1]; 0.958 in [2]; 0.835 in [3]; 0.998 in assay [4]; 0.95 in assay [5]. The “combination Emax” value amounted to 0.574 in assay [6]; 0.755 in [7]; 0.458 in [8]; 0.944 in assay [9]; 0.671 in [10]; 0.808 in the assay on DSH1 (Bladder Carcinoma). Moreover, the “combination Emax” value in [11] was 0.741; in assay [12], 0.811; in assay [13], 0.515; in the assay on SK-N-FI (Neuroblastoma), 0.783; in assay [14], 0.447; in the assay on NCI-H2369 (Mesothelioma) it was 0.363. The figures for the “combination Emax” value in assay [15] and in assay [16] were 1 and 0.553, respectively.
With `CCN(CCO)CCCOc1ccc2c(Nc3cc(CC(=O)Nc4cccc(F)c4)[nH]n3)ncnc2c1` [AZD2811] + C[C@@H]1COCCN1C2=NC(=NC(=C2)C3(CC3)[S@](=N)(=O)C)C4=C5C=CNC5=NC=C4 [AZD6738] (first compound max 1 µM, 7x7, partner max 10 µM), the “combination Emax” value in the assay on RH-1 (Ewing's Sarcoma) stood at 1; in assay [1], 0.529; in [2] it was 0.957; in [3], 0.59; in assay [4] it was 0.968; in assay [5], 0.93. Moreover, the “combination Emax” value was found to be 0.399 in [6]; 0.659 in [7]; 0.263 in [8]; 0.711 in assay [9]; 0.575 in assay [10]; 0.673 in the assay with DSH1 (Bladder Carcinoma). Also, the “combination Emax” value in assay [11] was determined as 0.464; in [12], 0.726; in assay [13], 0.321; with SK-N-FI (Neuroblastoma) it was 0.687; in assay [14] it was 0.171; with NCI-H2369 (Mesothelioma), 0.178. Further, the “combination Emax” value in [15] stood at 0.918; in assay [16], 0.424.
Regarding `Cc1cc2ncnn2cc1Nc1ncc2c(n1)n(C1CCOCC1)c(=O)n2C` [AZD7648] + CN(C)CCCOc1ccc(-c2ccc3ncc4c(c3c2)n(C2CCOCC2)c(=O)n4C)cn1 [AZD0156] (first compound max 10 µM, 7x7, partner max 1 µM), the “combination Emax” value with RH-1 (Ewing's Sarcoma) was 0.127; in assay [1], 0.341; in assay [2] it was 0.323; in assay [3] it was 0.468; in [4], 0.349; in assay [5], 0.394. Further, the “combination Emax” value in assay [6] is 0.235; in [7] it was 0.511; in assay [8], 0.341; in assay [9], 0.423; in [10], 0.109; with DSH1 (Bladder Carcinoma), 0.286. For the same compound, the “combination Emax” value in assay [11] came to 0.251; in assay [12], 0.551; in [13], 0.277; with SK-N-FI (Neuroblastoma), 0.353; in assay [14], 0.205; in the assay with NCI-H2369 (Mesothelioma), 0.198. Further, the “combination Emax” value in assay [15] stood at 0.478; in [16], 0.291.
As for `Cc1c2c(nn1C)CSCc1cc(n(C)n1)CSc1cc(c3ccccc3c1)OCCCc1c(C(=O)O)n(C)c3c-2c(Cl)ccc13` [AZD5991] + Cn1cnc2c(F)c(Nc3ccc(Br)cc3Cl)c(C(=O)NOCCO)cc21 [Selumetinib] (first compound max 1 µM, 7x7, partner max 3 µM), the “combination Emax” value in the assay with RH-1 (Ewing's Sarcoma) is 0.52; in assay [1], 0.358; in assay [2], 0.369; in [3], 1; in [4] it was 0.609; in assay [5] it was 0.675. The “combination Emax” value in [6] was 0.322; in assay [7], 0.379; in assay [8], 0.221; in assay [9], 0.979; in assay [10], 0.285; with DSH1 (Bladder Carcinoma), 0.489. Also, the “combination Emax” value in assay [11] turned out to be 0.487; in assay [12], 1; in assay [13], 0.211; in the assay on SK-N-FI (Neuroblastoma), 0.565; in assay [14] it was 0.336; in the assay with NCI-H2369 (Mesothelioma) it was 0.151. Besides, the figures for the “combination Emax” value in assay [15] and in assay [16] were 0.982 and 0.178, respectively.
With `Cn1cnc2c(F)c(Nc3ccc(Br)cc3Cl)c(C(=O)NOCCO)cc21` [Selumetinib] + C[C@@H]1COCCN1C2=NC(=NC(=C2)C3(CC3)[S@](=N)(=O)C)C4=C5C=CNC5=NC=C4 [AZD6738] (first compound max 10 µM, 7x7, partner max 10 µM), the “combination Emax” value with RH-1 (Ewing's Sarcoma) turned out to be 0.899; in assay [1], 0.421; in assay [2] it was 0.972; in assay [3], 0.935; in [4], 0.954; in assay [5], 0.947. Further, the “combination Emax” value stood at 0.667 in [6]; 0.569 in [7]; 0.141 in [8]; 0.648 in assay [9]; 0.386 in assay [10]; 0.761 in the assay on DSH1 (Bladder Carcinoma). Also, the “combination Emax” value is 0.759 in assay [11]; 0.274 in assay [12]; 0.362 in assay [13]; 0.746 in the assay on SK-N-FI (Neuroblastoma); 0.287 in assay [14]; 0.187 in the assay on NCI-H2369 (Mesothelioma). Besides, the “combination Emax” value in assay [15] was 0.856; in assay [16], 0.415.
As for `C=CCn1c(=O)c2cnc(Nc3ccc(N4CCN(C)CC4)cc3)nc2n1-c1cccc(C(C)(C)O)n1` [AZD1775] + C[C@@H]1COCCN1C2=NC(=NC(=C2)C3(CC3)[S@](=N)(=O)C)C4=C5C=CNC5=NC=C4 [AZD6738] (first compound max 1 µM, partner max 10 µM), the “combination Emax” value in the assay with RH-1 (Ewing's Sarcoma) was found to be 1; in [1] it was 0.536; in [2] it was 0.971; in assay [3], 0.753; in assay [4] it was 0.977; in [5] it was 0.982. Moreover, the “combination Emax” value in [6] worked out at 0.536; in assay [7], 0.694; in assay [8] it was 0.354; in [9], 0.886; in [10] it was 0.728; with DSH1 (Bladder Carcinoma) it was 0.862. In addition, the “combination Emax” value in assay [11] was determined as 0.567; in assay [12], 0.934; in assay [13], 0.41; in the assay on SK-N-FI (Neuroblastoma), 0.857; in [14], 0.425; in the assay with NCI-H2369 (Mesothelioma) it was 0.336. For the same compound, the figures for the “combination Emax” value in assay [15] and in assay [16] were 0.983 and 0.507, respectively.
With `COc1cccc2c1C(=O)c1c(O)c3c(c(O)c1C2=O)C[C@@](O)(C(=O)CO)C[C@@H]3O[C@H]1C[C@H](N)[C@H](O)[C@H](C)O1` [Doxorubicin] + Cc1cc2ncnn2cc1Nc1ncc2c(n1)n(C1CCOCC1)c(=O)n2C [AZD7648] (first compound max 1 µM, 7x7, partner max 10 µM), the “combination Emax” value is 1 with RH-1 (Ewing's Sarcoma); 0.608 in [1]; 1 in assay [2]; 0.681 in assay [3]; 0.978 in [4]; 0.981 in assay [5]. Moreover, the “combination Emax” value in assay [6] turned out to be 0.586; in assay [7], 0.751; in assay [8], 0.247; in assay [9], 0.988; in [10] it was 0.646; in the assay with DSH1 (Bladder Carcinoma), 0.86. For the same compound, the “combination Emax” value in [11] was found to be 0.485; in assay [12], 0.896; in assay [13], 0.481; in the assay on SK-N-FI (Neuroblastoma) it was 0.373; in [14], 0.514; in the assay on NCI-H2369 (Mesothelioma), 0.883. The “combination Emax” value was found to be 0.925 in assay [15] and 0.319 in assay [16].
